Series [1] relates to U138-MG human glioma cell. Briefly: Cell proliferation analysis (MTT). The conditions noted are these: Homo sapiens, 48 h, 10 µM, two days, MTT. It is filed as cell-based.
A further series relates to U87-MG human glioma cell. Kind of series: Cell proliferation analysis (MTT). In kind it is cell-based. Conditions: Homo sapiens, U-87 MG, 48 h, 10 µM, two days, MTT.
Series [2] concerns GBM xenograft rat model. Briefly: In vivo GBM rat model: survival. Conditions: GBM rats, 30 mg/kg oral gavage once daily for 5 days, 14th to 28th day, compared to untreated GBM rats. The procedure: (§1) An in Vivo study was performed to assess the therapeutic potential of TR-G002, TR-G045, TR-G053, TR-G066, TR-G071 and TR-G091 in the GBM xenograft rat model when administered orally by gavage for five consecutive days. 152 female rats of the Sprague Dawley strain were allocated to the study. Six groups of sixteen females were given dose of 30 mg/kg of the respective target compounds. […] The study design can be seen in Fig. 11 and Table 10.
(§2) Female Sprague Dawley rats (age: 6-8 weeks; weight: 255-310 g; ATADEM, Erzurum, Turkey) were utilized in the study. Rats underwent anaesthesia with 5% isoflurane, maintained at 2% isoflurane (1 L/min oxygen), and were positioned in a stereotactic frame for cell implantation (Stoelting Co., IL). […] A burr hole was drilled 1-mm anterior and 3-mm lateral to the right bregma. A microsyringe (Hamilton 1700 series) containing 5×10^4 U87-MG cells suspended in 5 µL of medium at 37 °C was advanced to a depth of 4 mm into the brain. The cells were injected at a rate of 3 µL/ min. Bone wax was used to fill the burr hole to prevent cell suspension reflux. The incision was sutured, and 1 mL of Meloxicam (5 mg/mL; Metacam, Boehringer Ingelheim Vetmedica, Ingelheim, Germany) was administered via a subcutaneous injection.
(§3) Fourteen days after inoculation, tumor development in rats was visualized and confirmed through magnetic resonance imaging (MRI). Rats confirmed to have developed tumors were then distributed into six different groups for treatment. […] 9 days after the final treatment dose, the rats underwent another MRI scan and blood and brain samples were taken under anaesthesia.

The subject of series [3] is GBM xenograft rat model. Briefly: In vivo GBM rat model: MRI analysis of tumor volumes. The conditions noted are these: GBM rats, 30 mg/kg oral, 5 days, ranking. The procedure: as §1, §2, §3
The anaesthetic was administered via an intraperitoneal route on animals fixed in the supine position with parallel hind limbs. MRI was performed using a 3 Tesla clinical scanner (Magnetom Skyra; Siemens Healthineers, Erlangen, Germany). Rats were placed in the prone position. T2-SPACE (sampling perfection with application-optimized contrast using different flip angle Evolution) sequence was obtained to view the brain in coronal and transverse planes. (TR: 6000 ms, TE: 100 ms, voxel size: 0.5 × 0.5 × 1 mm, 34 slices, slice thickness: 2 mm, slice spacing: 0.6 mm). The volume measurements of brain tumors were performed manually. One radiologist calculated the tumour volume - manually measuring tumour length (L), width (W), and height (H) - and then calculated the tumour volume using the formula 0.5236 × L × W × H (Stuppner S et al., 2020).

For a further series, the system named is H2A.X. Kind of series: In vivo GBM rat model: double immunofluorescence examination. Conditions: neurons, brain tissues, GBM rats, 30 mg/kg oral, 5 days. The procedure:
(§4) In immunofluorescence examinations, primary antibody (NOP10 Cat no: ab134902 dilution ratio: 1/100) was applied to tissues and incubated according to the instructions. A fluorescent secondary antibody (FITC Cat No: ab6785 dilution Ratio: 1/1000 UK) was then applied and incubated in the dark for 45 minutes. Afterward, a second primary antibody (H2A.X Cat no: sc-517336 dilution ratio: 1/100) was applied and incubated according to the instructions. A different fluorescent secondary antibody (Texas Red Cat No: ab6719 dilution Ratio: 1/1000 UK) was applied and incubated in the dark for 45 minutes. Finally, DAPI (Cat no: D1306 dilution ratio: 1/200 UK) was applied to the sections for 5 minutes in the dark, followed by covering the tissues with coverslips. The stained tissues were examined under a fluorescence attachment-equipped microscope (Zeiss AXIO, Germany).
(§5) Individual body weights were manually calculated. Group mean body weights; group mean body weight changes and organ weights were also manually calculated without statistical analysis. To determine the density of positive staining from immunohistochemical and immunofluorescence staining images, five randomly selected areas were evaluated using ZEISS Zen Imaging Software. Data were statistically defined as mean and standard deviation (mean ± SD) for the percentage of the area. One-way ANOVA followed by the Tukey test was performed to compare immunoreactive cells and immune-positive stained areas with healthy controls. GraphPad Prism software was used for analysis.

A further series deals with NOP10. The series is described as above. The conditions noted are these: neurons, brain tissues, GBM rats, 30 mg/kg oral, 5 days. As for the experimental part:
as §4, §5

Series [4] is described as follows: In vivo GBM rat model: plasma chemistry. On the set-up: CREA. / UA / TCHOL / HDLC: unit not given here. Conditions: GBM rats, 30 mg/kg oral, 5 days, plasma at necropsy. The procedure: The parameters that were analysed can be seen in Table 11.
Series [5] can be described thus: Peripheral blood micronucleus assay. In kind it is in vivo, Rat. The conditions noted are these: GBM rats, 30 mg/kg oral, 5 days, 1000 cells per animal evaluated. The procedure: Blood smears were made on clean microscope slides, allowed to air-dry, treated with methanol for fixation, and then stained with Giemsa (10% in 0.1 mM of sodium phosphate buffer, pH 6.8) for 10 min. After washing with PBS, the slides were examined under a light microscope. The frequencies of micronuclei (MN) were calculated by evaluating 1000 cells per animal.

Regarding `C=CCOC(=O)COc1ccc2c(c1)CCC(=O)N2` [TR-G071, Allyl 2-((2-oxo-1,2,3,4-tetrahydroquinolin-6-yl)oxy)acetate], in series [1], the activity at 10 µM came to 100% and at 10 µM the inhibition was 0%. In the series on U87-MG human glioma cell, this compound yielded an activity at 10 µM of 97% and an inhibition at 10 µM of 3%. Further, in the series with GBM xenograft rat model [2], the survival result is “prolonged survival”. The “antitumor activities, order” value in the series on GBM xenograft rat model [3] is reported as “TR-G066> TR-G045> TR-G002>TMZ> TR-G091> TR-G053> TR-G071”. Moreover, the “expressions of H2AX” value with H2A.X is “moderate”. For the same compound, in the series with NOP10, the “expressions of Nopio” value was “moderate”. Moreover, in series [4], the ALP was 130.5 IU/L, the ALT stood at 61.25 IU/L, the AST was 132.5 IU/L and the CREA. turned out to be 0.34. Further, in series [4], the GLU was determined as 295 mg/dL, the HDLC stood at 34.9, the LDH is 504.2 IU/L and the “LDL C” value was found to be 5.65 mmol/L. Also, in series [4], the TCHOL is listed as 53.35, the TG turned out to be 129 mg/dL and the UA was 1.69. In addition, the MN frequency in series [5] is 12.43 ± 2.09.

A word on the inhibition: it is the percentage by which the read-out fell short of the control.

The record behind these values is EP4644375A1, “SUBSTITUTED HYDROQUINOLINES FOR THE TREATMENT OF GLIOBLASTOMA MULTIFORME” (Molius Saglik Teknolojileri Anonim Sirketi, priority 2024, dated 2025).
